{"source": "ChEMBL document CHEMBL3044789", "about": "“Comparing weed and crop seedling response to pre-emergence pendimethalin application in Corchorus olitorius and Abelmoschus esculentus” (Crop Prot, 2006)", "key": {"Commelina diffusa": {"test_system": "Commelina diffusa", "assay": "Herbicidal activity against Commelina diffusa in Corchorus olitorius plots assessed as weed recovery at 0.66 kg a.i/ha after 2 weeks (reference value: 78.3 +/- 0.74 %)", "format": "functional"}, "Calopogonium mucunoides [1]": {"test_system": "Calopogonium mucunoides", "assay": "Herbicidal activity against Calopogonium mucunoides in Corchorus olitorius plots assessed as weed cover at 0.99 kg a.i/ha after 4 weeks (reference value: 20.1+/- 0.57 %)", "format": "functional"}, "Mimosa pudica": {"test_system": "Mimosa pudica", "assay": "Herbicidal activity against Mimosa pudica in Abelmoschus esculentus plots assessed as weed cover at 0.33 kg a.i/ha after 2 weeks (reference value: 63.5 +/- 0.29 %)", "format": "functional"}, "Euphorbia heterophylla [2]": {"test_system": "Euphorbia heterophylla", "assay": "Herbicidal activity against Euphorbia heterophylla in Corchorus olitorius plots assessed as major weed growth at 1.32 kg a.i/ha after 2 weeks", "format": "functional"}, "Calopogonium mucunoides [3]": {"test_system": "Calopogonium mucunoides", "assay": "Herbicidal activity against Calopogonium mucunoides in Corchorus olitorius plots assessed as weed recovery at 0.66 kg a.i/ha after 2 weeks (reference value: 78.3 +/- 0.74 %)", "format": "functional"}, "Cyperus rotundus": {"test_system": "Cyperus rotundus", "assay": "Herbicidal activity against Cyperus rotundus in Abelmoschus esculentus plots assessed as weed cover at 0.66 kg a.i/ha after 2 weeks (reference value: 63.5 +/- 0.29 %)", "format": "functional"}, "Corchorus olitorius [4]": {"test_system": "Corchorus olitorius", "assay": "Phytotoxicity in Corchorus olitorius assessed as shoot length at 0.99 kg a.i/ha treated to soil after 7 weeks (reference value: 23.7 +/- 0.10 mm)", "format": "organism-based", "settings": "in vivo, other, 1176 h"}, "Abelmoschus esculentus": {"test_system": "Abelmoschus esculentus", "assay": "Phytotoxicity in Abelmoschus esculentus assessed as shoot length at 0.99 kg a.i/ha applied as solution after 7 weeks (reference value: 28.7 +/- 0.34 mm)", "format": "organism-based", "settings": "in vivo, other, 1176 h"}, "Synedrella nodiflora [5]": {"test_system": "Synedrella nodiflora", "assay": "Herbicidal activity against Synedrella nodiflora in Corchorus olitorius plots assessed as weed cover at 0.99 kg a.i/ha after 4 weeks (reference value: 20.1+/- 0.57 %)", "format": "functional"}, "Synedrella nodiflora [6]": {"test_system": "Synedrella nodiflora", "assay": "Herbicidal activity against Synedrella nodiflora in Corchorus olitorius plots assessed as major weed growth at 0.99 kg a.i/ha after 2 weeks", "format": "functional"}, "Synedrella nodiflora [7]": {"test_system": "Synedrella nodiflora", "assay": "Herbicidal activity against Synedrella nodiflora in Corchorus olitorius plots assessed as minor weed growth at 0.66 kg a.i/ha after 2 weeks", "format": "functional"}, "Euphorbia heterophylla [8]": {"test_system": "Euphorbia heterophylla", "assay": "Herbicidal activity against Euphorbia heterophylla in Abelmoschus esculentus plots assessed as weed recovery at 1.32 kg a.i/ha after 2 weeks (reference value: 60.1 +/- 0.46 %)", "format": "functional"}, "Synedrella nodiflora [9]": {"test_system": "Synedrella nodiflora", "assay": "Herbicidal activity against Synedrella nodiflora in Abelmoschus esculentus plots assessed as weed recovery at 0.33 kg a.i/ha after 2 weeks (reference value: 60.1 +/- 0.46 %)", "format": "functional"}, "Ageratum conyzoides [10]": {"test_system": "Ageratum conyzoides", "assay": "Herbicidal activity against Ageratum conyzoides in Abelmoschus esculentus plots assessed as weed cover at 1.32 kg a.i/ha after 2 weeks (reference value: 63.5 +/- 0.29 %)", "format": "functional"}, "Corchorus olitorius [11]": {"test_system": "Corchorus olitorius", "assay": "Phytotoxicity in Corchorus olitorius assessed as root length at 0.99 kg a.i/ha applied as solution after 7 weeks (reference value: 14.3 +/- 1.06 mm)", "format": "organism-based", "settings": "in vivo, other, 1176 h"}, "Ageratum conyzoides [12]": {"test_system": "Ageratum conyzoides", "assay": "Herbicidal activity against Ageratum conyzoides in Corchorus olitorius plots assessed as weed cover at 0.33 kg a.i/ha after 4 weeks (reference value: 20.1+/- 0.57 %)", "format": "functional"}, "Calopogonium mucunoides [13]": {"test_system": "Calopogonium mucunoides", "assay": "Herbicidal activity against Calopogonium mucunoides in Abelmoschus esculentus plots assessed as weed cover at 0.33 kg a.i/ha after 2 weeks (reference value: 63.5 +/- 0.29 %)", "format": "functional"}, "[14]": {"test_system": "Rottboellia cochinchinensis", "assay": "Herbicidal activity against Rottboellia cochinchinensis in Corchorus olitorius plots assessed as weed cover at 0.33 kg a.i/ha after 7 weeks (reference value: 1.7 +/- 0.56 %)", "format": "functional"}, "Calopogonium mucunoides [15]": {"test_system": "Calopogonium mucunoides", "assay": "Herbicidal activity against Calopogonium mucunoides in Corchorus olitorius plots assessed as weed cover at 1.32 kg a.i/ha after 2 weeks (reference value: 81.7 +/- 0.43 %)", "format": "functional"}, "Euphorbia heterophylla [16]": {"test_system": "Euphorbia heterophylla", "assay": "Herbicidal activity against Euphorbia heterophylla in Corchorus olitorius plots assessed as major weed growth at 0.99 kg a.i/ha after 2 weeks", "format": "functional"}, "Corchorus olitorius [17]": {"test_system": "Corchorus olitorius", "assay": "Phytotoxicity in Corchorus olitorius assessed as root length at 0.33 kg a.i/ha applied as solution after 7 weeks (reference value: 14.3 +/- 1.06 mm)", "format": "organism-based", "settings": "in vivo, other, 1176 h"}, "Corchorus olitorius [18]": {"test_system": "Corchorus olitorius", "assay": "Phytotoxicity in Corchorus olitorius assessed as shoot length at 0.99 kg a.i/ha applied as solution after 7 weeks (reference value: 22.9 +/- 0.8 mm)", "format": "organism-based", "settings": "in vivo, other, 1176 h"}, "Synedrella nodiflora [19]": {"test_system": "Synedrella nodiflora", "assay": "Herbicidal activity against Synedrella nodiflora in Abelmoschus esculentus plots assessed as weed recovery at 0.66 kg a.i/ha after 2 weeks (reference value: 60.1 +/- 0.46 %)", "format": "functional"}, "Calopogonium mucunoides [20]": {"test_system": "Calopogonium mucunoides", "assay": "Herbicidal activity against Calopogonium mucunoides in Abelmoschus esculentus plots assessed as weed cover at 0.99 kg a.i/ha after 2 weeks (reference value: 63.5 +/- 0.29 %)", "format": "functional"}, "Calopogonium mucunoides [21]": {"test_system": "Calopogonium mucunoides", "assay": "Herbicidal activity against Calopogonium mucunoides in Abelmoschus esculentus plots assessed as weed cover at 0.33 kg a.i/ha after 4 weeks (reference value: 22.6 +/- 0.49 %)", "format": "functional"}, "Asteraceae": {"test_system": "Asteraceae", "assay": "Herbicidal activity against Aspilia africana in Corchorus olitorius plots assessed as weed recovery at 0.66 kg a.i/ha after 2 weeks (reference value: 78.3 +/- 0.74 %)", "format": "functional"}, "Synedrella nodiflora [22]": {"test_system": "Synedrella nodiflora", "assay": "Herbicidal activity against Synedrella nodiflora in Abelmoschus esculentus plots assessed as weed cover at 1.32 kg a.i/ha after 2 weeks (reference value: 63.5 +/- 0.29 %)", "format": "functional"}, "Corchorus olitorius [23]": {"test_system": "Corchorus olitorius", "assay": "Phytotoxicity in Corchorus olitorius assessed as root length at 0.66 kg a.i/ha treated to soil after 7 weeks (reference value: 16.9 +/- 0.09 mm)", "format": "organism-based", "settings": "in vivo, other, 1176 h"}, "Euphorbia heterophylla [24]": {"test_system": "Euphorbia heterophylla", "assay": "Herbicidal activity against Euphorbia heterophylla in Corchorus olitorius plots assessed as major weed growth at 0.66 kg a.i/ha after 2 weeks", "format": "functional"}, "[25]": {"test_system": "Rottboellia cochinchinensis", "assay": "Herbicidal activity against Rottboellia cochinchinensis in Corchorus olitorius plots assessed as weed cover at 0.33 kg a.i/ha after 4 weeks (reference value: 20.1+/- 0.57 %)", "format": "functional"}, "Synedrella nodiflora [26]": {"test_system": "Synedrella nodiflora", "assay": "Herbicidal activity against Synedrella nodiflora in Abelmoschus esculentus plots assessed as weed cover at 0.33 kg a.i/ha after 7 weeks (reference value: 14.7 +/- 0.46 %)", "format": "functional"}, "Euphorbia heterophylla [27]": {"test_system": "Euphorbia heterophylla", "assay": "Herbicidal activity against Euphorbia heterophylla in Abelmoschus esculentus plots assessed as weed recovery at 0.99 kg a.i/ha after 2 weeks (reference value: 60.1 +/- 0.46 %)", "format": "functional"}, "Synedrella nodiflora [28]": {"test_system": "Synedrella nodiflora", "assay": "Herbicidal activity against Synedrella nodiflora in Abelmoschus esculentus plots assessed as weed cover at 0.99 kg a.i/ha after 2 weeks (reference value: 63.5 +/- 0.29 %)", "format": "functional"}, "Calopogonium mucunoides [29]": {"test_system": "Calopogonium mucunoides", "assay": "Herbicidal activity against Calopogonium mucunoides in Corchorus olitorius plots assessed as weed recovery at 1.32 kg a.i/ha after 2 weeks (reference value: 78.3 +/- 0.74 %)", "format": "functional"}, "Talinum fruticosum": {"test_system": "Talinum fruticosum", "assay": "Herbicidal activity against Talinum fruticosum in Corchorus olitorius plots assessed as minor weed growth at 0.99 kg a.i/ha after 2 weeks", "format": "functional"}, "Synedrella nodiflora [30]": {"test_system": "Synedrella nodiflora", "assay": "Herbicidal activity against Synedrella nodiflora in Corchorus olitorius plots assessed as weed recovery at 0.66 kg a.i/ha after 2 weeks (reference value: 78.3 +/- 0.74 %)", "format": "functional"}}, "data": [{"molecule": "CCC(CC)Nc1c([N+](=O)[O-])cc(C)c(C)c1[N+](=O)[O-]", "note": "[PENDIMETHALIN]", "values": [{"measurement": "Activity", "setting": "Commelina diffusa", "result": 33.3, "unit": "%"}, {"measurement": "Activity", "setting": "Calopogonium mucunoides [1]", "result": 48.3, "unit": "%"}, {"measurement": "Activity", "setting": "Mimosa pudica", "result": 56.8, "unit": "%"}, {"measurement": "Activity", "setting": "Euphorbia heterophylla [2]", "result": "31 /m2"}, {"measurement": "Activity", "setting": "Calopogonium mucunoides [3]", "result": 33.3, "unit": "%"}, {"measurement": "Activity", "setting": "Cyperus rotundus", "result": 50.8, "unit": "%"}, {"measurement": "Activity", "setting": "Corchorus olitorius [4]", "result": 22.5, "unit": "mm"}, {"measurement": "Activity", "setting": "Abelmoschus esculentus", "result": 14.7, "unit": "mm"}, {"measurement": "Activity", "setting": "Synedrella nodiflora [5]", "result": 48.3, "unit": "%"}, {"measurement": "Activity", "setting": "Synedrella nodiflora [6]", "result": "31 /m2"}, {"measurement": "Activity", "setting": "Synedrella nodiflora [7]", "result": "1 /m2"}, {"measurement": "Activity", "setting": "Euphorbia heterophylla [8]", "result": 33.2, "unit": "%"}, {"measurement": "Activity", "setting": "Synedrella nodiflora [9]", "result": 39.2, "unit": "%"}, {"measurement": "Activity", "setting": "Ageratum conyzoides [10]", "result": 45, "unit": "%"}, {"measurement": "Activity", "setting": "Corchorus olitorius [11]", "result": 2.5, "unit": "mm"}, {"measurement": "Activity", "setting": "Ageratum conyzoides [12]", "result": 73.3, "unit": "%"}, {"measurement": "Activity", "setting": "Calopogonium mucunoides [13]", "result": 56.8, "unit": "%"}, {"measurement": "Activity", "setting": "[14]", "result": 100, "unit": "%"}, {"measurement": "Activity", "setting": "Calopogonium mucunoides [15]", "result": 41.7, "unit": "%"}, {"measurement": "Activity", "setting": "Euphorbia heterophylla [16]", "result": "31 /m2"}, {"measurement": "Activity", "setting": "Corchorus olitorius [17]", "result": 3.1, "unit": "mm"}, {"measurement": "Activity", "setting": "Corchorus olitorius [18]", "result": 5.7, "unit": "mm"}, {"measurement": "Activity", "setting": "Synedrella nodiflora [19]", "result": 47.9, "unit": "%"}, {"measurement": "Activity", "setting": "Calopogonium mucunoides [20]", "result": 47.9, "unit": "%"}, {"measurement": "Activity", "setting": "Calopogonium mucunoides [21]", "result": 53.8, "unit": "%"}, {"measurement": "Activity", "setting": "Asteraceae", "result": 33.3, "unit": "%"}, {"measurement": "Activity", "setting": "Synedrella nodiflora [22]", "result": 45, "unit": "%"}, {"measurement": "Activity", "setting": "Corchorus olitorius [23]", "result": 13.7, "unit": "mm"}, {"measurement": "Activity", "setting": "Euphorbia heterophylla [24]", "result": "31 /m2"}, {"measurement": "Activity", "setting": "[25]", "result": 73.3, "unit": "%"}, {"measurement": "Activity", "setting": "Synedrella nodiflora [26]", "result": 90, "unit": "%"}, {"measurement": "Activity", "setting": "Euphorbia heterophylla [27]", "result": 36.2, "unit": "%"}, {"measurement": "Activity", "setting": "Synedrella nodiflora [28]", "result": 47.9, "unit": "%"}, {"measurement": "Activity", "setting": "Calopogonium mucunoides [29]", "result": 13.3, "unit": "%"}, {"measurement": "Activity", "setting": "Talinum fruticosum", "result": "1 /m2"}, {"measurement": "Activity", "setting": "Synedrella nodiflora [30]", "result": 33.3, "unit": "%"}]}]}
